For one assay, the system named is Phytophthora infestans. It is filed as in vivo. As to conditions: 200 ppm; tomato leaf disks, inoculated 1 day after application, assessed 5-7 days after application, vs untreated.
The test system of assay [1] is Botryotinia fuckeliana (Botrytis cinerea). The assay is described as follows: Fungicidal activity against Botryotinia fuckeliana (Botrytis cinerea) / liquid culture (gray mould). Type of assay: cell-based. As to conditions: liquid culture (Vogels broth), inhibition of growth determined photometrically 3-4 days after application, read-out: disease control. As to the method:
Fungicidal Activity Against Botryotinia fuckeliana (Botrytis cinerea)/Liquid Culture (Gray Mould) Conidia of the fungus from cryogenic storage were directly mixed into nutrient broth (Vogels broth). After placing a (DMSO) solution of test compound into a microtiter plate (96-well format), the nutrient broth containing the fungal spores was added. The test plates were incubated at 24° C. and the inhibition of growth was determined photometrically 3-4 days after application.

In a further assay the test system is Gaeumannomyces graminis. The assay can be described thus: Fungicidal activity against Gaeumannomyces graminis / liquid culture (take-all of cereals). It is filed as cell-based. The settings on record: liquid culture (PDB), inhibition of growth determined photometrically 4-5 days after application, read-out: disease control. As to the method: Fungicidal Activity Against Gaeumannomyces graminis/Liquid Culture (Take-all of Cereals) Mycelial fragments of the fungus from cryogenic storage were directly mixed into nutrient broth (PDB potato dextrose broth). After placing a (DMSO) solution of test compound into a microtiter plate (96-well format), the nutrient broth containing the fungal spores is added. The test plates were incubated at 24° C. and the inhibition of growth was determined photometrically 4-5 days after application.

Assay [2] deals with Glomerella lagenarium (Colletotrichum lagenarium). The assay is described as follows: Fungicidal activity against Glomerella lagenarium (Colletotrichum lagenarium) / liquid culture (anthracnose). It is filed as cell-based. As to conditions: Colletotrichum orbiculare, liquid culture (PDB), inhibition of growth measured photometrically 3-4 days after application, read-out: disease control. Here is the method: Fungicidal Activity Against Glomerella lagenarium (Colletotrichum lagenarium)/Liquid Culture (Anthracnose) Conidia of the fungus from cryogenic storage were directly mixed into nutrient broth (PDB potato dextrose broth). After placing a (DMSO) solution of test compound into a microtiter plate (96-well format), the nutrient broth containing the fungal spores was added. The test plates were incubated at 24° C. and the inhibition of growth was measured photometrically 3-4 days after application.

The test system of assay [3] is Monographella nivalis (Microdochium nivale). The assay is described as follows: Fungicidal activity against Monographella nivalis (Microdochium nivale) / liquid culture (foot rot cereals). Type of assay: cell-based. As to conditions: liquid culture (PDB), inhibition of growth determined photometrically 4-5 days after application, read-out: disease control. As to the method: Fungicidal Activity Against Monographella nivalis (Microdochium nivale)/Liquid Culture (Foot Rot Cereals) Conidia of the fungus from cryogenic storage were directly mixed into nutrient broth (PDB potato dextrose broth). After placing a (DMSO) solution of test compound into a microtiter plate (96-well format), the nutrient broth containing the fungal spores was added. The test plates were incubated at 24° C. and the inhibition of growth was determined photometrically 4-5 days after application.

Assay [4] has as its system Mycosphaerella arachidis (Cercospora arachidicola). The assay is described as follows: Fungicidal activity against Mycosphaerella arachidis (Cercospora arachidicola) / liquid culture (early leaf spot). The settings on record: liquid culture (PDB), inhibition of growth determined photometrically 4-5 days after application, read-out: disease control. Type of assay: cell-based. As to the method:
Fungicidal Activity Against Mycosphaerella arachidis (Cercospora arachidicola)/Liquid Culture (Early Leaf Spot) Conidia of the fungus from cryogenic storage were directly mixed into nutrient broth (PDB potato dextrose broth). After placing a (DMSO) solution of test compound into a microtiter plate (96-well format), the nutrient broth containing the fungal spores was added. The test plates were incubated at 24° C. and the inhibition of growth was determined photometrically 4-5 days after application.

Assay [5] relates to Mycosphaerella graminicola (Septoria tritici). The assay can be described thus: Fungicidal activity against Mycosphaerella graminicola (Septoria tritici) / liquid culture (Septoria blotch). The settings on record: Zymoseptoria tritici, liquid culture (PDB), inhibition of growth determined photometrically 4-5 days after application, read-out: disease control. Type of assay: cell-based. As to the method: Fungicidal Activity Against Mycosphaerella graminicola (Septoria tritici)/Liquid Culture (Septoria Blotch) Conidia of the fungus from cryogenic storage were directly mixed into nutrient broth (PDB potato dextrose broth). After placing a (DMSO) solution of test compound into a microtiter plate (96-well format), the nutrient broth containing the fungal spores was added. The test plates were incubated at 24° C. and the inhibition of growth was determined photometrically 4-5 days after application.

Assay [6] relates to Phaeosphaeria nodorum (Septoria nodorum). The assay can be described thus: Fungicidal activity against Phaeosphaeria nodorum (Septoria nodorum) / wheat / leaf disc preventative (glume blotch). It is filed as in vivo. The settings on record: Parastagonospora nodorum, foliar, wheat leaf segments cv. Kanzler, inoculated 2 days after application, assessed 5-7 days after application, vs untreated, read-out: disease control. Here is the method:
Fungicidal Activity Against Phaeosphaeria nodorum (Septoria nodorum)/Wheat/Leaf Disc Preventative (Glume Blotch) Wheat leaf segments cv. Kanzler were placed on agar in a multiwell plate (24-well format) and sprayed with the formulated test compound diluted in water. The leaf disks were inoculated with a spore suspension of the fungus 2 days after application. The inoculated test leaf disks were incubated at 20° C. and 75% rh under a light regime of 12 h light/12 h darkness in a climate cabinet and the activity of a compound was assessed as percent disease control compared to untreated when an appropriate level of disease damage appears in untreated check leaf disks (5-7 days after application).

Assay [7] relates to Puccinia recondita f. sp. tritici. The assay is described as follows: Fungicidal activity against Puccinia recondita f. sp. tritici / wheat / leaf disc preventative (brown rust). Type of assay: in vivo. The settings on record: foliar, wheat leaf segments cv. Kanzler, inoculated 1 day after application, assessed 7-9 days after application, vs untreated, read-out: disease control. As to the method:
Fungicidal Activity Against Puccinia recondita f. sp. tritici/Wheat/Leaf Disc Preventative (Brown Rust) Wheat leaf segments cv. Kanzler were placed on agar in multiwell plates (24-well format) and sprayed with the formulated test compound diluted in water. The leaf disks were inoculated with a spore suspension of the fungus 1 day after application. The inoculated leaf segments were incubated at 19° C. and 75% rh under a light regime of 12 h light/12 h darkness in a climate cabinet and the activity of a compound was assessed as percent disease control compared to untreated when an appropriate level of disease damage appears in untreated check leaf segments (7-9 days after application).

The test system of the next assay is Pyrenophora teres. The assay is described as follows: Fungicidal activity against Pyrenophora teres / barley / leaf disc preventative (net blotch). Type of assay: in vivo. The settings on record: foliar, barley leaf segments cv. Hasso, inoculated 2 days after application, assessed 5-7 days after application, vs untreated, read-out: disease control. Here is the method:
Fungicidal Activity Against Pyrenophora teres/Barley/Leaf Disc Preventative (Net Blotch) Barley leaf segments cv. Hasso were placed on agar in a multiwell plate (24-well format) and sprayed with the formulated test compound diluted in water. The leaf […] inoculated with a spore suspension of the fungus 2 days after application. The inoculated leaf segments were incubated at 20° C. and 65% rh under a light regime of 12 h light/12 h darkness in a climate cabinet and the activity of a compound was assessed as disease control compared to untreated when an appropriate level of disease damage appears in untreated check leaf segments (5-7 days after application).

Bounds are passed on as bounds.

As for `c1ccc(Cc2cccc(-c3ncc4ccsc4n3)n2)cc1` [Compound T3.1.31, 2-(6-benzyl-pyridin-2-yl)-thieno[2,3-d]pyrimidine], the disease control result in the assay on Phytophthora infestans was “at least 80%”.
As to `c1ccc(Cc2cccc(-c3ncc4ccsc4n3)n2)cc1` [Compound T15.16], the inhibition of growth at 200 ppm (in assay [1]; with Gaeumannomyces graminis; in [2]; in [3]; in assay [4]; in assay [5]) was at least 80% throughout. The pest or weed control at 200 ppm (in assay [6]; in assay [7]; in the assay with Pyrenophora teres) was at least 80% each time.

The record behind these values is US20120316184A1, “NOVEL MICROBICIDES” (SYNGENTA CROP PROTECTION LLC, priority 2010, published 2012).
